What all share (test): Post-emergence efficacy, glasshouse
Type in all cases: in vivo

Experiment [1] has as its system Setaria faberi (SETFA). As to conditions: Setaria faberi, post-emergence, 312 h, evaluated after 13 days, 100=total damage to plant, 0=no damage to plant, read-out: Control of weed species after post-emergence application, SETFA; for pest or weed control at 500 g/ha: Application Rate 500 g/Ha; for pest or weed control at 1000 g/ha: Application Rate 1000 g/Ha. Here is the method: (§1) Seeds of a variety of test species were sown in standard soil in pots. After cultivation for 14 days (post-emergence) under controlled conditions in a glasshouse (at 24/16° C., day/night; 14 hours light; 65% humidity), the plants were sprayed with an aqueous spray solution derived from the dissolution of the technical active ingredient formula (I) in a small amount of acetone and a special solvent and emulsifier mixture referred to as IF50 (11.12% Emulsogen EL360™+44.44% N-methylpyrrolidone+44.44% Dowanol DPM glycol ether), to create a 50 g/l solution which was then diluted to required concentration using 0.25% or 1% Empicol ESC70 (Sodium lauryl ether sulphate)+1% ammonium sulphate in water as diluent.
(§2) The test plants were then grown in a glasshouse under controlled conditions (at 24/16° C., day/night; 14 hours light; 65% humidity) and watered twice daily. After 13 days the test was evaluated (100=total damage to plant; 0=no damage to plant).
(§3) Ipomoea hederacea (IPOHE), Euphorbia heterophylla (EPHHL), Chenopodium album (CHEAL), Amaranthus palmeri (AMAPA), Lolium perenne (LOLPE), Digitaria sanguinalis (DIGSA), Eleusine indica (ELEIN), Echinochloa crus-galli (ECHCG), Setaria faberi (SETFA)

For experiment [2], the system named is Chenopodium album (CHEAL). As to conditions: Chenopodium album, post-emergence, 312 h, evaluated after 13 days, 100=total damage to plant, 0=no damage to plant, read-out: Control of weed species after post-emergence application, CHEAL; for pest or weed control at 500 g/ha: Application Rate 500 g/Ha; for pest or weed control at 1000 g/ha: Application Rate 1000 g/Ha. On the procedure: as §1, §2, §3

Experiment [3] has as its system Echinochloa crus-galli (ECHCG). To be noted: Echinochloa crus-galli, post-emergence, 312 h, evaluated after 13 days, 100=total damage to plant, 0=no damage to plant, read-out: Control of weed species after post-emergence application, ECHCG; for pest or weed control at 500 g/ha: Application Rate 500 g/Ha; for pest or weed control at 1000 g/ha: Application Rate 1000 g/Ha. On the procedure:
as §1, §2, §3

For experiment [4], the system named is Ipomoea hederacea (IPOHE). To be noted: Ipomoea hederacea, post-emergence, 312 h, evaluated after 13 days, 100=total damage to plant, 0=no damage to plant, read-out: Control of weed species after post-emergence application, IPOHE; for pest or weed control at 500 g/ha: Application Rate 500 g/Ha; for pest or weed control at 1000 g/ha: Application Rate 1000 g/Ha. On the procedure: as §1, §2, §3

Experiment [5] deals with Lolium perenne (LOLPE). To be noted: Lolium perenne, post-emergence, 312 h, evaluated after 13 days, 100=total damage to plant, 0=no damage to plant, read-out: Control of weed species after post-emergence application, LOLPE; for pest or weed control at 500 g/ha: Application Rate 500 g/Ha; for pest or weed control at 1000 g/ha: Application Rate 1000 g/Ha. On the procedure: as §1, §2, §3

Experiment [6] relates to Amaranthus palmeri (AMAPA). To be noted: Amaranthus palmeri, post-emergence, 312 h, evaluated after 13 days, 100=total damage to plant, 0=no damage to plant, read-out: Control of weed species after post-emergence application, AMAPA; for pest or weed control at 500 g/ha: Application Rate 500 g/Ha; for pest or weed control at 1000 g/ha: Application Rate 1000 g/Ha. On the procedure: as §1, §2, §3

Experiment [7] has as its system Digitaria sanguinalis (DIGSA). As to conditions: Digitaria sanguinalis, post-emergence, 312 h, evaluated after 13 days, 100=total damage to plant, 0=no damage to plant, read-out: Control of weed species after post-emergence application, DIGSA; for pest or weed control at 500 g/ha: Application Rate 500 g/Ha; for pest or weed control at 1000 g/ha: Application Rate 1000 g/Ha. On the procedure: as §1, §2, §3

In experiment [8] the test system is Euphorbia heterophylla (EPHHL). To be noted: Euphorbia heterophylla, post-emergence, 312 h, evaluated after 13 days, 100=total damage to plant, 0=no damage to plant, read-out: Control of weed species after post-emergence application, EPHHL; for pest or weed control at 500 g/ha: Application Rate 500 g/Ha; for pest or weed control at 1000 g/ha: Application Rate 1000 g/Ha. Here is the method: as §1, §2, §3

Experiment [9] has as its system Eleusine indica (ELEIN). To be noted: Eleusine indica, post-emergence, 312 h, evaluated after 13 days, 100=total damage to plant, 0=no damage to plant, read-out: Control of weed species after post-emergence application, ELEIN; for pest or weed control at 500 g/ha: Application Rate 500 g/Ha; for pest or weed control at 1000 g/ha: Application Rate 1000 g/Ha. Here is the method: as §1, §2, §3

Consider ten compounds from patent US20220132847A1, “CINNOLINIUM COMPOUNDS FOR USE IN A METHOD OF CONTROLLING UNWANTED PLANT GROWTH” (SYNGENTA CROP PROTECTION AG, priority 2019, published 2022).

Regarding `CC(C)OP(=O)([O-])c1c[n+](C(C)C)nc2ccccc12` [Compound A76, isopropoxy-(2-isopropylcinnolin-2-ium-4-yl)phosphinate], the pest or weed control at 500 g/ha in experiment [1] stood at 80%; in experiment [2], 90%; in experiment [3] it was 70%; in experiment [4], 90%; in [5] it was 50%; in experiment [6], 100%. Also, the pest or weed control at 500 g/ha in [7] was determined as 80%; in experiment [8], 100%; in [9], 100%.

`O=C(O)c1c[n+](CCO)nc2ccccc12` [Compound A30]: the pest or weed control at 1000 g/ha in experiment [1] stood at 70%; in [2], 100%; in experiment [3] it was 50%; in [4], 100%; in [5] it was 40%; in experiment [6] it was 100%. Further, the figures for the pest or weed control at 1000 g/ha in experiment [7], in experiment [8] and in experiment [9] were 90%, 100% and 80%, respectively.

For `CCOP(=O)(O)c1c[n+](CCO)nc2ccccc12` [Compound A71], the pest or weed control at 1000 g/ha in experiment [1] was determined as 100%; in experiment [2], 90%; in experiment [3] it was 30%; in [4] it was 80%; in experiment [5], 40%; in [6], 100%. Also, the results for the pest or weed control at 1000 g/ha in experiment [7], in experiment [8] and in [9] were 90%, 100% and 90%, respectively.

With `COC(=O)CCS(=O)(=O)[N-]C(=O)c1c[n+](C)nc2ccccc12` [Compound A42], the pest or weed control at 1000 g/ha in experiment [1] was found to be 40%; in [2] it was 60%; in experiment [3], 20%; in experiment [4], 40%; in experiment [5], 10%; in [6], 70%. The pest or weed control at 1000 g/ha in experiment [7] turned out to be 60%; in experiment [8], 60%; in [9], 80%.

Regarding `CCP(=O)([O-])c1c[n+](C)nc2ccccc12` [Compound A48, ethyl-(2-methylcinnolin-2-ium-4-yl)phosphinate], the pest or weed control at 1000 g/ha was determined as 100% in experiment [1]; 100% in [2]; 80% in experiment [3]; 70% in experiment [4]; 40% in [5]; 100% in experiment [6]. Besides, the figures for the pest or weed control at 1000 g/ha in experiment [7], in experiment [8] and in experiment [9] were 70%, 100% and 100%, respectively.

For `C[C@@H](NC(=O)c1c[n+](C)nc2ccccc12)C(=O)O` [Compound A9, (2R)-2-[(2-methylcinnolin-2-ium-4-carbonyl)amino]propanoic acid 2,2,2-trifluoroacetate], the pest or weed control at 1000 g/ha in experiment [1] worked out at 30%; in experiment [2] it was 50%; in experiment [3], 20%; in experiment [4], 50%; in [5], 10%; in experiment [6] it was 50%. Further, the pest or weed control at 1000 g/ha came out at 40% in experiment [7], 50% in [8] and 40% in [9].

Turning to `CC(C)CP(=O)([O-])c1c[n+](C)nc2ccccc12` [Compound A45], the pest or weed control at 1000 g/ha in experiment [1] is 90%; in [2], 90%; in experiment [3], 70%; in experiment [4], 90%; in [5], 50%; in experiment [6] it was 100%. Moreover, the values for the pest or weed control at 1000 g/ha in [7], in experiment [8] and in experiment [9] were 90%, 100% and 100%, respectively.

On to `COCC[n+]1cc(C(=O)[N-]S(C)(=O)=O)c2ccccc2n1` [Compound A24], for which the pest or weed control at 1000 g/ha in experiment [1] turned out to be 50%; in experiment [2] it was 70%; in experiment [3], 50%; in [4] it was 60%; in [5], 20%; in experiment [6] it was 70%. The pest or weed control at 1000 g/ha is 40% in [7], 40% in experiment [8] and 50% in experiment [9].

With `C[n+]1cc(SCC(=O)O)c2ccccc2n1` [Compound A57, 2-(2-methylcinnolin-2-ium-4-yl)sulfanylacetic acid chloride], the pest or weed control at 1000 g/ha in [1] stood at 30%; in experiment [2] it was 40%; in experiment [3], 10%; in [4], 10%; in experiment [5], 10%; in experiment [6], 40%. For the same compound, the figures for the pest or weed control at 1000 g/ha in [7], in experiment [8] and in experiment [9] were 30%, 20% and 40%, respectively.

On to `CCOP(=O)([O-])c1c[n+](C(C)(C)C)nc2ccccc12` [Compound A75, (2-tert-butylcinnolin-2-ium-4-yl)-ethoxy-phosphinate], for which the pest or weed control at 500 g/ha is 30% in experiment [1]; 50% in experiment [2]; 70% in experiment [3]; 30% in experiment [4]; 30% in [5]; 50% in [6]. The results for the pest or weed control at 500 g/ha in experiment [7], in experiment [8] and in experiment [9] were 30%, 30% and 70%, respectively.
